The record followed here is ChEMBL document CHEMBL5505987 (Eur J Med Chem, 2024).

Common to all, as to format: functional, cell-based
The subject of one assay is HeLa. As to the kind of experiment: Cytotoxicity against human HeLa cells assessed as cell viability by MTT assay. A general note: Formazan colour is commonly taken as a measure of viable cells.
A further assay has as its system MCF7. The experiment in a line: Cytotoxicity against human MCF7 cells assessed as cell viability by MTT assay.
A further assay deals with A549. As to the kind of experiment: Cytotoxicity against human A549 cells assessed as cell viability by MTT assay.
In the next assay the test system is MDA-MB-231. The experiment in a line: Cytotoxicity against human MDA-MB-231 cells assessed as cell viability by MTT assay.

As a reminder, the IC50 is the concentration that inhibits the measured activity by half. With `O=C1C[C@H](c2ccccc2)Oc2cc(O)c([C@H](/C=C/C[C@@H](O)CCc3ccccc3)c3ccccc3)c(O)c21`, the IC50 with HeLa was found to be 1580 nM; with MCF7, 12.5 µM; in the assay on A549, 5.59 µM; in the assay with MDA-MB-231, 3.45 µM.
